Data on 36 compounds can be found in publication PMC4910395 (Bioorganic & medicinal chemistry, 2015).

Counter-ions that a name gives are not always drawn. Like-named read-outs stand apart in the source and are kept apart here.

Experiment [1] has as its target NMDA receptor (NR), channel binding site labeled with [^3H]MK-801 (Rattus norvegicus, UniProt P35439+Q00959+Q00960). Kind of experiment: Inhibition of [^3H]MK-801 binding to rat cortical membranes. To be noted: for [^3H]MK-801 Ratio IC50 (30 µM spm)/IC50 (no spm): mean ratio, spermine sensitivity; for IC50: in presence of 30 µM spermine.
For experiment [2], the target named is T1, NMDA receptor (NR), [^3H]ifenprodil binding site (Rattus norvegicus, UniProt P35439+Q00960). To be noted: pH 7.4.
T1 sequence (Q00960 27-1482, other chains not shown): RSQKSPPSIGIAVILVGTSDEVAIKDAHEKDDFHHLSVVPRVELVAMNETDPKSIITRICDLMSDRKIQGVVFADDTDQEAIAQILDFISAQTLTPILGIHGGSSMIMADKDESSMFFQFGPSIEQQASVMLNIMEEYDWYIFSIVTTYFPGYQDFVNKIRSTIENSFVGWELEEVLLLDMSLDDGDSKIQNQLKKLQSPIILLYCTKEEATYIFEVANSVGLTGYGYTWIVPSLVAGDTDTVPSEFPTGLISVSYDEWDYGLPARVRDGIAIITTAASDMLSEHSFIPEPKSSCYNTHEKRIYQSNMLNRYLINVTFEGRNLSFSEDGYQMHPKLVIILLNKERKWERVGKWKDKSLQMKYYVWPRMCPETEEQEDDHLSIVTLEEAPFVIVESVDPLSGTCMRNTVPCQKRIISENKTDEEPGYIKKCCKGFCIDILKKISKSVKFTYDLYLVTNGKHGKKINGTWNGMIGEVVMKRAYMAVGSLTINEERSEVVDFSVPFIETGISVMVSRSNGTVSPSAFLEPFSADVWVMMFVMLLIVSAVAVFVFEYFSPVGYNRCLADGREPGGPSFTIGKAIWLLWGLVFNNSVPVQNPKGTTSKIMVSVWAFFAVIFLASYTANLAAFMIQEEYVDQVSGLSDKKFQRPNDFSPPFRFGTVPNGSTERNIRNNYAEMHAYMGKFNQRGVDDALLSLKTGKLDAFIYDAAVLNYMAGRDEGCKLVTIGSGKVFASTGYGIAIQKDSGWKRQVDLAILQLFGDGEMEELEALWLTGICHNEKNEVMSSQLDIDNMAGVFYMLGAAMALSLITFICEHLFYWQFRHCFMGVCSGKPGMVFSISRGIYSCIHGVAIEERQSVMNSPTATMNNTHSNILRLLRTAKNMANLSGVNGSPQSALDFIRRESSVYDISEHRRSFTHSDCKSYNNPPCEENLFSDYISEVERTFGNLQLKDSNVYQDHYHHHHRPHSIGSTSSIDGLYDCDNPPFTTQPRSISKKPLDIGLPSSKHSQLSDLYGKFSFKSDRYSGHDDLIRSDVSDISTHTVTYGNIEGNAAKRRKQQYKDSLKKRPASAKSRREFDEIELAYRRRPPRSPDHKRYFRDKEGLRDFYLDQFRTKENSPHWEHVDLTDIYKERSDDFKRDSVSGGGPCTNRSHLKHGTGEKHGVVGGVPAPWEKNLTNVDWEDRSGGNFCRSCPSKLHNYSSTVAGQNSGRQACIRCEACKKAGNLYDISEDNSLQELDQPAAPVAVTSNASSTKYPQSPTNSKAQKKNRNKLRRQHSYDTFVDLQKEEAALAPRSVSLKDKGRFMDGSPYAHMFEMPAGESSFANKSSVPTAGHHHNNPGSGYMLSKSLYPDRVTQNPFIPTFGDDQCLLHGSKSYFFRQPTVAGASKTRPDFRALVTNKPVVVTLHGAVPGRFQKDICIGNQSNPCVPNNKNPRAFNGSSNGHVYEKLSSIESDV
Experiment [3] has as its target T1, NMDA receptor (NR), [^3H]ifenprodil binding site. Kind of experiment: biochemical.
The next experiment concerns NRs in native membranes. To be noted: native membranes from rat frontoparietal cortex and hippocampus; cited from earlier work.
The target in experiment [4] is NMDA receptor, [^3H]MK-801 binding. To be noted: read-out: IC50, inhibition of [^3H]MK-801 binding to rat brain membranes; 5, 4 and 3 methylene groups between the oxygens; cited from earlier work.
Where [5] appears, read: read-out: [^3H]MK-801 IC50 ± SD (n), 30 µM spm.
Where [6] appears, read: [^3H]MK-801 IC50 ± SD (n), 30 µM spm.

NMDA receptor (NR), channel binding site labeled with [^3H]MK-801, sequence (Q00959 23-1464, other chains not shown): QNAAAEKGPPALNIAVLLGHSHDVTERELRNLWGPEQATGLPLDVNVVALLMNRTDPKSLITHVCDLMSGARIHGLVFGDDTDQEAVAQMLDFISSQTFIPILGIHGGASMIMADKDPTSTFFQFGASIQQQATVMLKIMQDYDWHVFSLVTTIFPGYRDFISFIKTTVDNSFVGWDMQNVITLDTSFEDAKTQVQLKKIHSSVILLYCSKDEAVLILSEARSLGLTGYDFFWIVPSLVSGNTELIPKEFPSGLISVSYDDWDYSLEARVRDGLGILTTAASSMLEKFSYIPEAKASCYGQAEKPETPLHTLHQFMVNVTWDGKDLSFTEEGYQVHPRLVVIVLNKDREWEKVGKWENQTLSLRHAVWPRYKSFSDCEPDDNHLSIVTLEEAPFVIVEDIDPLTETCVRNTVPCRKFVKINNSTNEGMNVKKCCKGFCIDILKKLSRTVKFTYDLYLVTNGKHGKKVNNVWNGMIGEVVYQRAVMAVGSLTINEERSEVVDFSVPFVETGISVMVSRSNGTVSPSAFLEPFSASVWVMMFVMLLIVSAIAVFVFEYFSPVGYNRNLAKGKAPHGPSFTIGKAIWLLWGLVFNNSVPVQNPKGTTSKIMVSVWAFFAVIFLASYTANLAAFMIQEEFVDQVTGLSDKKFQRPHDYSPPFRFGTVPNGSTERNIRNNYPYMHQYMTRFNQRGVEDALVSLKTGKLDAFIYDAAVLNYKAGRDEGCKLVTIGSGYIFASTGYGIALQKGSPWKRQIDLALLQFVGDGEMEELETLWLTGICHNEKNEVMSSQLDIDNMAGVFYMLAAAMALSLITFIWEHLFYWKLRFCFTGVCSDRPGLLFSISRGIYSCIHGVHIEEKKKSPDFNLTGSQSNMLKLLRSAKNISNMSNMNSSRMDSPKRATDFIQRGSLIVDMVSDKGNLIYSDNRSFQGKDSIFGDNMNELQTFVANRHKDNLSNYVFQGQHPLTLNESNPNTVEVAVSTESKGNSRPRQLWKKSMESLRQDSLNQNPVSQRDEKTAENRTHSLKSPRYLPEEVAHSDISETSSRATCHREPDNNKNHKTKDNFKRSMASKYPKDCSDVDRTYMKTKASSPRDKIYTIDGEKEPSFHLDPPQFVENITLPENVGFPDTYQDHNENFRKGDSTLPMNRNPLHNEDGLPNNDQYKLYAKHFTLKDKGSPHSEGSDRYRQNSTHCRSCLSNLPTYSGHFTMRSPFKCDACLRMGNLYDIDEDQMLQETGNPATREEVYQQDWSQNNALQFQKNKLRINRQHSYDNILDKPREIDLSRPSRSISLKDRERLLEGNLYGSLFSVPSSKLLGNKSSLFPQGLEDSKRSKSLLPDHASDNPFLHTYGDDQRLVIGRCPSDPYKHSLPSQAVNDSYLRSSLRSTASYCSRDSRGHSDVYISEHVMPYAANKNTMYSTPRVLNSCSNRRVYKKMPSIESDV
NMDA receptor (NR), channel binding site labeled with [^3H]MK-801, sequence (Q00960 27-1482, other chains not shown): as the sequence (Q00960 27-1482, other chains not shown) above

As for “1,5-Bis[(1-amidinophenyl)N-methylamino]-3-oxapentane [compound 11]”, the “[^3H]MK-801 Ratio IC50 (30 µM spm)/IC50 (no spm)” value (“[^3H]MK-801 Ratio IC50 … (no spm)” below) in experiment [1] is recorded as 15.2 ± 2.2 (3). The IC50 in experiment [1] (setting [5]) was 12.5 ± 1.8 µM; in experiment [2], 21.9 ± 5.2 µM. For the compound `N=C(N)c1ccc(NCCCCCCNc2ccc(C(=N)N)cc2)cc1` [compound 42], in experiment [1], the “[^3H]MK-801 Ratio IC50 … (no spm)” value is 5.26 (2). The same measure, in the same setting: to `N=C(N)c1ccc(NCCCCNc2ccc(C(=N)N)cc2)cc1` [compound 41] belongs 17.2 (2); to `N=C(N)c1ccc(NCCCNc2ccc(C(=N)N)cc2)cc1` [compound 39], 17.0 (2). Turning to “1,5-Bis(1-amidino-3-methoxyphenylamino)pentane dihydrochloride [compound 9]”, the IC50 in experiment [2] was 4.54 µM.

Consider `c1cc(N2CCCN(c3ccc(C4=NCCN4)cc3)CC2)ccc1C1=NCCN1` [compound 32], for which, in experiment [1], the “[^3H]MK-801 Ratio IC50 … (no spm)” value is given as 30.1 (2).

Take `N=C(N)c1ccc(OC(=O)c2ccc(C(=O)Oc3ccc(C(=N)N)cc3)cc2)cc1` [compound 60]: in experiment [1], the “[^3H]MK-801 Ratio IC50 … (no spm)” value is given as 3.98 (2). Further, the IC50 in experiment [3] amounted to 38.6 µM. `CC/N=C(\N)c1ccc(-c2ccc(-c3ccc(/C(N)=N/CC)cc3)o2)cc1` [compound 70]: the “[^3H]MK-801 Ratio IC50 … (no spm)” value in experiment [1] was 2.56 (2). In the case of `N=C(N)c1ccc(-c2ccc(-c3ccc(C(=N)N)s3)s2)s1` [compound 71, 5,5″-Diamidino-2,2′:5′,2″-terthiophene dihydrochloride], in experiment [1], the “[^3H]MK-801 Ratio IC50 … (no spm)” value was 1.50 (2). Same read-out and setting: in the case of `N=C(NC1CC1)c1ccc(N2CCN(c3ccc(C(=N)NC4CC4)cc3)CC2)cc1` [compound 18] it was 21.8 (2); in that of `N=C(N)c1ccc(C(=O)Nc2cccc(NC(=O)c3ccc(C(=N)N)cc3)n2)cc1` [compound 67], 1.85 (2); in that of `N=C(NCCCO)c1ccc(N2CCCN(c3ccc(/C(N)=N/CCCO)cc3)CC2)cc1` [compound 31], 9.72 (2).

`CC(C(O)c1ccc(O)cc1)N1CCC(Cc2ccccc2)CC1` (stereo not drawn) [ifenprodil]: in the experiment on NRs in native membranes, the “Share of NRs blocked with high affinity” value is given as 23%. As to `N=C(N)c1ccc(SCCOCCSc2ccc(C(=N)N)cc2)cc1` [compound 5], the IC50 in experiment [1] (setting [6]) was 23.8 ± 2.7 µM. Further, the “[^3H]MK-801 Ratio IC50 … (no spm)” value in experiment [1] was 20.2 ± 6.1 (3). Turning to `N=C(N)c1ccc(C(=O)NCCCCCCNC(=O)c2ccc(C(=N)N)cc2)cc1` [compound 55], the “[^3H]MK-801 Ratio IC50 … (no spm)” value in experiment [1] is listed as 4.59 (2). `N=C(N)c1ccc(-c2ccc(-c3ccc(-c4ccc(C(=N)N)o4)s3)s2)o1` [compound 75]: the “[^3H]MK-801 Ratio IC50 … (no spm)” value in experiment [1] was 4.26 (2). Turning to “N,N-Bis[2-(1-amidino-3-methoxyphenoxy)ethyl]-4-methylbenzenesulfonamide dihydrochloride [compound 15]”, the half-inhibitory concentration (IC50) in experiment [1] (setting [5]) turned out to be 28.7 ± 4.4 µM; in experiment [2], 0.84 µM.

With `N=C(N)c1ccc(N2CCN(c3ccc(C(=N)N)cc3)CC2)cc1` [compound 16], in experiment [1], the “[^3H]MK-801 Ratio IC50 … (no spm)” value was 26.2 (2). Turning to `N=C(N)c1ccc(OCc2ccccc2COc2ccc(C(=N)N)cc2)cc1` [compound 57], the IC50 in experiment [3] is 2.05 µM.

For `N=C(N)c1ccc(NCCCCCCCCNc2ccc(C(=N)N)cc2)cc1` [compound 44], in experiment [1], the “[^3H]MK-801 Ratio IC50 … (no spm)” value was 4.37 (2). In the case of `N=C(N)c1ccc(-c2ccc(-c3nc4ccc(C(=N)N)cc4[nH]3)s2)cc1` [compound 74], in experiment [1], the “[^3H]MK-801 Ratio IC50 … (no spm)” value is 4.14 (2). Same read-out and setting: to `CCCNC(=N)c1ccc(N2CCN(c3ccc(C(=N)NCCC)cc3)CC2)cc1` [compound 19] belongs 21.8 (2); to `CCN(CCN(CC)c1ccc(C(=N)N)cc1)c1ccc(C(=N)N)cc1` [compound 38], 11.8 (2); to `N=C(N)c1ccc(NC(=O)c2cccc(C(=O)Nc3ccc(C(=N)N)cc3)n2)cc1` [compound 65], 1.22 (2). `N=C(N)c1ccc(OCc2ccc(COc3ccc(C(=N)N)cc3)cc2)cc1` [compound 59] showed an IC50 in experiment [3] of 16.8 µM. For `N=C(N)NCCCCNC(=N)N` [Arcaine, reference compound], in experiment [1], the “[^3H]MK-801 Ratio IC50 … (no spm)” value is reported as 33.6 (2). Same read-out and setting: to `CC(C)(C)/N=C(\N)c1ccc(N2CCCN(c3ccc(/C(N)=N/C(C)(C)C)cc3)CC2)cc1` [compound 27] belongs 16.8 (2); to `N=C(N)c1ccc(NCCCCCCCNc2ccc(C(=N)N)cc2)cc1` [compound 43, 1,7-Bis[(1-amidinophenyl)amino]heptane dihydrochloride], 5.37 (2).

Take `N=C(N)c1ccc(NC(=O)c2cccc(C(=O)Nc3ccc(C(=N)N)cc3)c2)cc1` [compound 61]: the “[^3H]MK-801 Ratio IC50 … (no spm)” value in experiment [1] is reported as 0.97 (2). Turning to `N=C(N)c1ccc(OCCCCCOc2ccc(C(=N)N)cc2)cc1` [compound 1, Pentamidine, reference compound], the IC50 was 24.9 ± 5.7 µM in experiment [1] (setting [6]), 32.5 µM in experiment [3] and 2.59 µM in experiment [4]. Also, in experiment [1], the “[^3H]MK-801 Ratio IC50 … (no spm)” value is listed as 9.1 ± 2.5 (7). Regarding `N=C(N)c1ccc(NC(=O)CCCCC(=O)Nc2ccc(C(=N)N)cc2)cc1` [compound 46], the “[^3H]MK-801 Ratio IC50 … (no spm)” value in experiment [1] is recorded as 3.46 (2). In the case of `N=C(N)c1ccc(NC(=O)c2ccc(C(=O)Nc3ccc(C(=N)N)cc3)cc2)cc1` [compound 62], the “[^3H]MK-801 Ratio IC50 … (no spm)” value in experiment [1] is reported as 0.96 (2). As to `N=C(N)c1ccc(NC(=O)CCCC(=O)Nc2ccc(C(=N)N)cc2)cc1` [compound 45], the “Fold weaker than pentamidine” value in experiment [1] (no spermine) stood at 100 fold. Further, the IC50 in experiment [3] came out at 65.6 µM. As for `CN(CCNc1ccc(C(=N)N)cc1)c1ccc(C(=N)N)cc1` [compound 35], the “[^3H]MK-801 Ratio IC50 … (no spm)” value in experiment [1] is reported as 30.2 (2). `CN(CCN(C)c1ccc(C(=N)N)cc1)c1ccc(C(=N)N)cc1` [compound 37]: in experiment [1], the “[^3H]MK-801 Ratio IC50 … (no spm)” value is 20.9 (2). Same read-out and setting: in the case of `N=C(N)c1ccc(-c2ccc(-c3ccc(C(=N)N)cc3)c(F)c2)cc1` [compound 73] it was 4.63 (2).
